Laboratory results reported in PMC11868595, “Safety, pharmacokinetics and efficacy of HA121-28 in patients with advanced solid tumors and RET fusion-positive non-small-cell lung cancer: a multicenter, open-label, single-arm phase 1/2 trial” (Signal Transduction and Targeted Therapy, 2025).
Where two headings read alike, the source gives them in different places.

Legend:
[1] = system: RET fusion-positive NSCLC; experiment: Tumor response by RECIST 1.1 (ORR, DCR, DOR, PFS), phase 1/2; assay type: in vivo, human; settings: for Best response: Complete response / Best response: Not evaluable / Best response: Partial response / Best response: Progressive disease / Best response: Stable disease: ERS, investigator-assessed RECIST 1.1; for PFS: patient with previous RET-TKI treatment
Experimental: Treatment-emergent adverse events (TEAEs) were documented during the entire study period. The predefined adverse event of special interest (AESI) was ≥ grade 3 prolonged QT interval. Tumor imaging was performed using contrast-enhanced computed tomography or magnetic resonance imaging at screening, Day 28 of the first cycle, then approximately every eight weeks till the end of the study for phase 1; in phase 2, imaging was scheduled at screening, and every eight weeks during the first 40 weeks, followed by every 12 weeks for the rest of the study period. RECIST 1.1 was used by the independent review committee or investigators for assessment of tumor response. After the original assessment, a repeated assessment was required around four weeks later to confirm a complete or partial response.
The primary endpoints of phase 1 were to investigate the MTD, dose-limiting toxicities, and the incidence and severity of TEAEs. Each TEAE was graded according to the Common Terminology Criteria for Adverse Events (CTCAE, version 5.0) and coded by Medical Dictionary for Regulatory Activities (MedDRA, version 21.0). The secondary endpoints included calculating PK parameters, assessing the ORR and DCR at the recommended dose by investigators as per RECIST 1.1. The exploratory endpoint was PFS.
The primary endpoint of phase 2 was the independent review committee evaluated ORR using RECIST 1.1. The secondary endpoints included investigators assessed ORR; DCR, PFS, and DOR by the independent review committee and investigators; overall survival and TEAEs. Each TEAE was graded according to CTCAE version 5.0 and coded by MedDRA (version 24.0). The phase 2 trial is ongoing; not all endpoints are reported in this paper.
The full analysis set consisted of all patients who had administered at least one dose of HA121-28 and was used to calculate the baseline characteristics, OS, and PFS results. The safety set included all patients who had administered at least one dose of the HA121-28 and had at least one safety-related observation. This population was used for analysis of TEAEs. The efficacy evaluable set consisted of patients who had administered at least one dose of HA121-28 and completed at least one efficacy assessment following study treatment. This population was used to calculate the ORR, DOR, and DCR. In addition, the ORRs for subgroup analyses, including age ( < 60, ≥60), ECOG PS (0 or 1), gender (male or female), prior treatment with TKIs (yes or no), brain or liver metastasis (yes or no), were also calculated. The plasma drug concentration-time profile was characterized using PK concentration set that included patients who had administered at least one dose of HA121-28 and had at least one measurable plasma concentration of HA121-28. The PK parameter set was used to calculate PK parameters, which consisted of patients who had administered at least one dose of HA121-28 with at least one valid PK parameter. ORR and DCR were described using the Clopper-Pearson method with two-sided 95% confidence intervals (CIs). PFS and DOR were assessed using the Kaplan-Meier method, including an estimate of the median, along with corresponding 95% CIs. Statistical analyses of clinical outcomes were conducted by SAS (version 9.4 or later) and R software 4.1.0 for genomic DNA from pre-treatment tumor tissue (http://cran.r-project.org).

[2] = system: A498 cells; experiment: Tumor cell proliferation in vitro; assay type: cell-based
[3] = system: ECA-109 cells; experiment: Tumor cell proliferation in vitro; assay type: cell-based, human
[4] = system: FGFR1-3; assay type: biochemical
[5] = RET fusion-positive NSCLC, ≥450 mg q.d.

## COc1cc2c(Nc3ccc(Br)cc3F)ncnc2cc1OCCCCN(C)C.Cl.Cl [HA121-28, N-(4-bromo-2-fluorophenyl)-7-(4-(dimethylamino)butoxy)-6-methoxy quinazolin-4-amine dihydrochloride]
[1]; 73 patients with non-RET fusion tumors, phase 1 dose expansion
  tumor response: no response
[1]; 97 RET fusion-positive NSCLC patients, ≥450 mg q.d.
  confirmed ORR (investigator-assessed): 26.8%
[1]; All (N=97)
  Best response: Complete response: 0 No. (%)
  Best response: Not evaluable: 4 (4.1) No. (%)
  Best response: Partial response: 26 (26.8) No. (%)
  Best response: Progressive disease: 23 (23.7) No. (%)
  Best response: Stable disease: 44 (45.4) No. (%)
[1]; CCDC6 (N=15)
  Best response: Complete response: 0 No. (%)
  Best response: Not evaluable: 1 (6.7) No. (%)
  Best response: Partial response: 7 (46.7) No. (%)
  Best response: Progressive disease: 1 (6.7) No. (%)
  Best response: Stable disease: 6 (40.0) No. (%)
[1]; CCDC6-RET fusion patients
  confirmed ORR: 46.7%
  median DOR: 14.0 months
  median PFS: 14.9 months
[1]; KIF5B (N=71)
  Best response: Complete response: 0 No. (%)
  Best response: Not evaluable: 2 (2.8) No. (%)
  Best response: Partial response: 18 (25.4) No. (%)
  Best response: Progressive disease: 21 (29.6) No. (%)
  Best response: Stable disease: 30 (42.3) No. (%)
[1]; KIF5B-RET fusion patients
  confirmed ORR: 25.4%
  median DOR: 7.7 months
  median PFS: 5.5 months
[1]; Other (N=11)
  Best response: Complete response: 0 No. (%)
  Best response: Not evaluable: 1 (9.1) No. (%)
  Best response: Partial response: 1 (9.1) No. (%)
  Best response: Progressive disease: 1 (9.1) No. (%)
  Best response: Stable disease: 8 (72.7) No. (%)
[1]; RET fusion-positive NSCLC (66 of 97)
  patients with shrinkage in tumor size: 68.0%
[1]; [5]
  DCR: 72.2%
  median PFS: 5.5 months
[1]; TP53 wild-type group (5 out of 15)
  patients with partial response: 33.3%
[1]; concurrent TP53 mutation (1 out of 11)
  patients with partial response: 9.1%
[1]; SD, dosing 176 days
  PFS: 5.52 months
[1]; confirmed PR, dosing 167 days
  PFS: 5.36 months
[1]; phase 1, advanced RET fusion NSCLC with at least one efficacy evaluation, as of April 28, 2021
  patients with partial response: 7 of 17
[1]; subgroup ECOG PS of 0
  ORR: 35.5%
[1]; subgroup age < 60
  ORR: 30.9%
[1]; subgroup with liver metastasis
  ORR: 37.5%
[2]
  IC50: 858 ± 17.9 nM
[3]
  IC50: 6663 ± 54.5 nM
[4]; FGFR1, read-out: IC50, FGFR1
  IC50: 32.3 nM
[4]; FGFR2, read-out: IC50, FGFR2
  IC50: 20.4 nM
[4]; FGFR3, read-out: IC50, FGFR3
  IC50: 23.1 nM
